Tests used:
K-Ras G12D = molecular target: T1, K-Ras G12D (Homo sapiens, UniProt P01116, G12D); experiment: PPI-HTRF assay, K-Ras G12D / SOS1 interaction; assay type: biochemical; settings: HTRF, K-Ras G12D; read-out: PPI-HTRF-5 nM (K-Ras G12D IC50)
T1 construct: made in house; host or cells: E. coli, e.g. BL21 (DE3)
Method in brief: (§1)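 GST-tagged K-Ras (WT or mutant) bound to anti-GST-Eu was mixed with His-hSOS1 bound to anti-6His-XL665 in pH 7.4 HEPES/NaCl/DTT/BSA/Igepal buffer. After ~10 min or longer, HTRF was read (ex 337 nm, em 620/665 nm). IC50 was derived from the 665/620 ratio, with duplicates tested from 10 μM down to 0.01 μM.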

K-Ras G12S = molecular target: T2, K-Ras G12S (Homo sapiens, UniProt P01116, G12S); experiment: PPI-HTRF assay, K-Ras G12S / SOS1 interaction; assay type: biochemical; settings: read-out: PPI-HTRF-5 nM (K-Ras G12S IC50)
T2 construct: made in house; host or cells: E. coli, e.g. BL21 (DE3)
Method in brief: as §1

K-Ras G12V = molecular target: T3, K-Ras G12V (Homo sapiens, UniProt P01116, G12V); experiment: PPI-HTRF assay, K-Ras G12V / SOS1 interaction; assay type: biochemical; settings: HTRF, K-Ras G12V; read-out: PPI-HTRF-5 nM (K-Ras G12V IC50)
T3 construct: made in house; host or cells: E. coli, e.g. BL21 (DE3)
Method in brief: as §1

wildtype K-Ras = molecular target: T4, wildtype K-Ras (Homo sapiens, UniProt P01116); experiment: PPI-HTRF assay, wildtype K-Ras / SOS1 interaction; assay type: biochemical; settings: HTRF, K-Ras wt; read-out: PPI-HTRF-5 nM (K-Ras wt IC50)
T4 construct: made in house; host or cells: E. coli, e.g. BL21 (DE3)
Method in brief: as §1

GP2D cells = experiment: Ras cellular assay, cell proliferation GP2D; assay type: cell-based
Method in brief: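 GP2D cells (G12D Ras mutant) seeded (e.g., 800/well) and treated the next day with a dilution series (e.g., 9-point, 3-fold). After approximately 5 days, viability measured by CellTiter-Glo luminescence; IC50 from four-parameter fit.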

A549 cells = experiment: Ras cellular assay, cell proliferation A549; assay type: cell-based; settings: Homo sapiens
Method in brief: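 G12S-mutant A549 cells (800/well) in RPMI-1640 plus 10% heat-inactivated FBS, standard or ultra-low attachment 384-well plates, dosed the day after plating with a 10-point 3-fold series. Viability by CellTiter-Glo luminescence about 6 days later; IC50 from four-parameter fit.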

SW620 cells = experiment: Ras cellular assay, cell proliferation SW620; assay type: cell-based; settings: Homo sapiens, SW-620
Excerpt: For example, this assay can be also used to assess selective growth inhibition of a mutant Ras protein relative to a wildtype, or relative to a different mutant Ras protein.

T2 sequence (P01116 1-188 isoform P01116-2 G12S): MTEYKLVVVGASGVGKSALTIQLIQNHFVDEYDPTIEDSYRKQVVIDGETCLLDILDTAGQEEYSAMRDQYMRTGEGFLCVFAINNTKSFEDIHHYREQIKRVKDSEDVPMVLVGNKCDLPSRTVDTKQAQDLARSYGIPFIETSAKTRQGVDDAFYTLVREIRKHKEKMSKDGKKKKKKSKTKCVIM
T1 sequence (P01116 1-188 isoform P01116-2 G12D): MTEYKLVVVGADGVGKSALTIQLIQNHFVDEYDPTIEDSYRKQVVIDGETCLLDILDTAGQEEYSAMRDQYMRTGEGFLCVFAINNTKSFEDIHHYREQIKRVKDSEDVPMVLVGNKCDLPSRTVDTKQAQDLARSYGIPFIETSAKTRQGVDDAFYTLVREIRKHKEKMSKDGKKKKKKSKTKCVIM
T3 sequence (P01116 1-188 isoform P01116-2 G12V): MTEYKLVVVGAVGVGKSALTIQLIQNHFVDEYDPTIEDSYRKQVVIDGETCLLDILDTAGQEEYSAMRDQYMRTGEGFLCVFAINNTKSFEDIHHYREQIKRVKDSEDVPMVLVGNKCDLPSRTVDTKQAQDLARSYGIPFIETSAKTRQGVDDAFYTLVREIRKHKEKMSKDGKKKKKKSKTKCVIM
T4 sequence (P01116 1-188 isoform P01116-2): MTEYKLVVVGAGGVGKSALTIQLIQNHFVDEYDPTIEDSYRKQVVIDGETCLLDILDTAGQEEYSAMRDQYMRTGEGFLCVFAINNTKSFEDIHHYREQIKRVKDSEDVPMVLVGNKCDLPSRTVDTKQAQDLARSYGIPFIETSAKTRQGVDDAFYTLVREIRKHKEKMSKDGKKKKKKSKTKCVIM

IC50 (K-Ras G12D) | IC50 (K-Ras G12S) | IC50 (K-Ras G12V) | IC50 (wildtype K-Ras) | IC50 (A549 cells) | IC50 (SW620 cells) | Compound | IC50 (GP2D cells)
< 5 µM | < 5 µM | < 5 µM | < 5 µM | > 5 µM | > 5 µM | N#Cc1c(N)sc2c(F)ccc(-c3c(Cl)c4c5c(nc(OC[C@@]67CCCN6C[C@H](F)C7)nc5c3F)N(CCC3CNC3)C3COCC3CO4)c12 (stereo partly drawn) [compound 171, 2-amino-4-(12-(2-(azetidin-3-yl)ethyl)-6-chloro-4-fluoro-2-(((2R,7aS)-2-fluorotetrahydro-1H-pyrrolizin-7a(5H)-yl)methoxy)-8a,9,11a,12-tetrahydro-8H,11H-furo[3′,4′:6,7][1,5]oxazocino[4,3,2-de]quinazolin-5-yl)-7-fluorobenzo[b]thiophene-3-carbonitrile] | < 5 µM
< 5 µM | < 5 µM | < 5 µM | < 5 µM | < 5 µM | < 5 µM | N#Cc1c(N)sc2c(F)ccc(-c3c(Cl)c4c5c(nc(OC[C@@]67CCCN6C[C@H](F)C7)nc5c3F)N3C(CO)CCC3CO4)c12 (stereo partly drawn) [compound 185, 2-amino-4-(6-chloro-4-fluoro-2-(((2R,7aS)-2-fluorotetrahydro-1H-pyrrolizin-7a(5H)-yl)methoxy)-11-(hydroxymethyl)-8a,9,10,11-tetrahydro-8H-pyrrolo[2′,1′:3,4][1,4]oxazepino[5,6,7-de]quinazolin-5-yl)-7-fluorobenzo[b]thiophene-3-carbonitrile] | < 5 µM
< 5 µM | < 5 µM | < 5 µM | < 5 µM | > 5 µM | > 5 µM | CN1c2nc(OC[C@@]34CCCN3C[C@H](F)C4)nc3c(F)c(-c4ccc(F)c5sc(N)c(C#N)c45)c(Cl)c(c23)OC2CNCC21 (stereo partly drawn) [compound 214, 2-amino-4-(6-chloro-4-fluoro-2-(((2R,7aS)-2-fluorotetrahydro-1H-pyrrolizin-7a(5H)-yl)methoxy)-11-methyl-7a,8,9,10,10a,11-hexahydropyrrolo[3′,4′:2,3][1,4]oxazepino [5,6,7-de]quinazolin-5-yl)-7-fluorobenzo[b]thiophene-3-carbonitrile] | > 5 µM
< 5 µM | < 5 µM | < 5 µM | < 5 µM | > 5 µM | < 5 µM | N#Cc1c(N)sc2c(F)ccc(-c3c(Cl)c4c5c(nc(OC[C@@]67CCCN6C[C@H](F)C7)nc5c3F)N3CC(OC(F)F)CCC3CO4)c12 (single isomer, unassigned) [compound 148] | < 5 µM
< 5 µM | < 5 µM | < 5 µM | < 5 µM | < 5 µM | < 5 µM | N#Cc1c(N)sc2c(F)ccc(-c3c(Cl)c4c5c(nc(OC[C@@]67CCCN6C[C@H](F)C7)nc5c3F)N3CC(F)(F)C[C@@H]3CO4)c12 [compound 176, 2-amino-4-((8aR)-6-chloro-4,10,10-trifluoro-2-(((2R,7aS)-2-fluorotetrahydro-1H-pyrrolizin-7a(5H)-yl)methoxy)-8a,9,10,11-tetrahydro-8H-pyrrolo[2′,1′:3,4][1,4]oxazepino[5,6,7-de]quinazolin-5-yl)-7-fluorobenzo[b]thiophene-3-carbonitrile] | < 5 µM
< 5 µM | < 5 µM | < 5 µM | < 5 µM | < 5 µM | < 5 µM | COCC1CCC2COc3c(Cl)c(-c4ccc(F)c5sc(N)c(C#N)c45)c(F)c4nc(OC[C@@]56CCCN5C[C@H](F)C6)nc(c34)N12 (stereo partly drawn) [compound 138, 2-amino-4-(6-chloro-4-fluoro-2-(((2R,7aS)-2-fluorotetrahydro-1H-pyrrolizin-7a(5H)-yl)methoxy)-11-(methoxymethyl)-8a,9,10,11-tetrahydro-8H-pyrrolo[2′,1′:3,4][1,4]oxazepino[5,6,7-de]quinazolin-5-yl)-7-fluorobenzo[b]thiophene-3-carbonitrile] | < 5 µM
< 5 µM | < 5 µM | < 5 µM | < 5 µM | < 5 µM | < 5 µM | N#Cc1c(N)sc2c(F)ccc(-c3c(Cl)c4c5c(nc(OC[C@@]67CCCN6C[C@H](F)C7)nc5c3F)N3CCCC[C@@H]3CCO4)c12 [compound 196, 2-amino-4-((6aR)-3-chloro-1-fluoro-13-(((2R,7aS)-2-fluorotetrahydro-1H-pyrrolizin-7a(5H)-yl)methoxy)-6,6a,7,8,9,10-hexahydro-5H-pyrido[11,2′:5,6][1,5]oxazocino[4,3,2-de]quinazolin-2-yl)-7-fluorobenzo[b]thiophene-3-carbonitrile] | < 5 µM

Compound | IC50 (K-Ras G12D) | IC50 (K-Ras G12S) | IC50 (K-Ras G12V) | IC50 (wildtype K-Ras) | IC50 (A549 cells) | IC50 (SW620 cells) | IC50 (GP2D cells)
N#Cc1c(N)sc2c(F)ccc(-c3c(Cl)c4c5c(nc(OC[C@@]67CCCN6C[C@H](F)C7)nc5c3F)N3[C@H](CCO4)C[C@@H]4OCC[C@@H]43)c12 [compound 200, 2-amino-4-((6aR,7aS,10aS)-3-chloro-1-fluoro-13-(((2R,7aS)-2-fluorotetrahydro-1H-pyrrolizin-7a(5H)-yl)methoxy)-5,6,6a,7,7a,9,10,10a-octahydrofuro[2″,3″:4′,5′]pyrrolo[1′,2′:5,6][1,5]oxazocino[4,3,2-de]quinazolin-2-yl)-7-fluorobenzo[b]thiophene-3-carbonitrile] | < 5 µM | < 5 µM | < 5 µM | < 5 µM | < 5 µM | < 5 µM | < 5 µM

Reference: patent US12059425B2, “Heterocyclic compounds and uses thereof” (Kumquat Biosciences Inc., priority 2022, dated 2024)
